The target in the experiment is T1, porcine pancreatic elastase (PPE) (Sus scrofa, UniProt P00772).
T1 construct: gene CELA1; commercial native enzyme from porcine pancreas (Sigma Aldrich); PDB 1QGF printed for the docking model of PPE
Description: spectrophotometric, p-nitroaniline release at […] nm. To be noted: read-out: IC50 Values / EI (μg/mL) (converted). Format: biochemical.

1 compound from article PMC12473510, “Multidisciplinary Bioanalytical Approach to Assess the Anti-Aging Properties of Flower Petals—A Promising Sustainable Cosmetic Ingredient” (Plants, 2025) can be followed below.

T1 sequence (P00772 27-266): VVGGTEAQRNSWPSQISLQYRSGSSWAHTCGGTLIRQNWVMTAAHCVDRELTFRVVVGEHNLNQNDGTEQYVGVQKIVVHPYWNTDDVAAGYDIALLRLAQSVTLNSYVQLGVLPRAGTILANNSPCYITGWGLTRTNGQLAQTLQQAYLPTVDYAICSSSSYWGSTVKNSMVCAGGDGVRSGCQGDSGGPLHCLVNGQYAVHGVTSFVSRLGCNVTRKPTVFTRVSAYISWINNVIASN

For `O=C(O[C@@H]1Cc2c(O)cc(O)cc2O[C@@H]1c1cc(O)c(O)c(O)c1)c1cc(O)c(O)c(O)c1` [epigallocatechin gallate], the IC50 is 759 µM.
